Measurements taken from ChEMBL document CHEMBL4616670, “Phosphine Oxides from a Medicinal Chemist's Perspective: Physicochemical and in Vitro Parameters Relevant for Drug Discovery” (J Med Chem, 2020).
≈ marks a conversion by molar mass, not a printed value.

Experiments:
[1] = 168 h
Description: Chemical stability of the compound in MeOH/NH3 solution at pH >10 assessed as compound decomposition measured after 7 days by UV-RP-HPLC analysis

[2] = 24 h
Description: Chemical stability of the compound in MeOH/NH3 solution at pH >10 assessed as compound decomposition measured after 1 day by UV-RP-HPLC analysis

[3] = physchem; details: octanol/water, pH 2
Description: Octanol/water partition coefficient, log D of the compound at pH 2

[4] = physchem; details: octanol/water, pH 11
Description: Octanol/water partition coefficient, log D of the compound at pH 11

[5] = in vitro; details: human, liver microsomes
Description: Half life in human liver microsomes at 1 uM incubated prior to NADPH addition by LC-MS/MS analysis

[6] = in vitro; details: human, liver microsomes; remark: listed apart in the source
Description: Stability in human liver microsomes at 1 uM incubated prior to NADPH addition by LC-MS/MS analysis relative to hepatic blood flow

[7] = physchem; details: pH 6.8 buffer
[8] = physchem; details: pH 6.8 buffer; remark: listed apart in the source
[9] = in vitro; details: human, Caco-2
Description: Permeability across apical to basolateral side in human Caco2 cells measured up to 2 hrs by LC-MS/MS analysis or scintillation counting method

[10] = in vitro; details: human, Caco-2; remark: listed apart in the source
Description: Efflux ratio of permeability in human Caco2 cells measured up to 2 hrs by LC-MS/MS analysis or scintillation counting method

[11] = physchem; details: MeOH/HCl solution
Description: Chemical stability of the compound in MeOH/HCl solution at pH <1 assessed as compound decomposition measured after 7 days by UV-RP-HPLC analysis

[12] = Acid dissociation constant, pKa1 of the compound by UV absorption spectra analysis or potentiometric titration technique; type: physicochemical
[13] = Acid dissociation constant, pKa2 of the compound by UV absorption spectra analysis or potentiometric titration technique; type: physicochemical
[14] = Equilibrium thermodynamic aqueous solubility of the compound in pH 2.3 buffer incubated for 24 hrs by UV-spectroscopy based shake flask method; type: physicochemical; details: read-out: Therm_solubility
[15] = Equilibrium thermodynamic aqueous solubility of the compound in pH 2 buffer incubated for 24 hrs by UV-spectroscopy based shake flask method; type: physicochemical; details: read-out: Therm_solubility
[16] = Chemical stability of the compound in MeOH/HCl solution at pH <1 assessed as compound decomposition measured after 1 day by UV-RP-HPLC analysis; type: physicochemical; details: read-out: Drug degradation
[17] = Basic dissociation constant, pKb of the compound by UV absorption spectra analysis or potentiometric titration technique; type: physicochemical
[18] = Chemical stability of the compound in MeOH/H2O solution at pH >10 assessed as compound decomposition measured after 1 day by UV-RP-HPLC analysis; type: physicochemical; details: read-out: Drug degradation
[19] = Equilibrium thermodynamic aqueous solubility of the compound in pH 2.1 buffer incubated for 24 hrs by UV-spectroscopy based shake flask method; type: physicochemical; details: read-out: Therm_solubility
[20] = in vitro; details: human, plasma
Description: Protein binding in human plasma

[21] = Acid dissociation constant, pKa of the compound by UV absorption spectra analysis or potentiometric titration technique; type: physicochemical
[22] = Equilibrium thermodynamic aqueous solubility of the compound in pH 5.9 buffer incubated for 24 hrs by UV-spectroscopy based shake flask method; type: physicochemical; details: read-out: Therm_solubility

SMILES	Drug degradation [1] [%]	logD [3]	logD [4]	half-life at 1 µM [5] [h]	hepatic extraction ratio at 1 µM [6]	solubility thermodynamic at 24 h [7] [µg/mL]	solubility thermodynamic at 24 h [8] [µg/mL]	Papp A→B at 2 h [9] [×10⁻⁶ cm/s]	efflux ratio at 2 h [10]	degraded at 168 h [11] [%]	further results
O=P1(c2ccc(C(F)(F)F)cc2)OCCCO1	70	2.1	1.5	> 2.17	< 0.23	> 66	8800 (≈ 33.1 mM)	95	0.4	< 10	Drug degradation [2]: > 90%
O=P(O)(O)c1ccc(C(F)(F)F)cc1	< 10	0.6	< -1.6			> 54				< 10	pKa [12]: < 2; pKa [13]: 6.8; solubility thermodynamic at 24 h [14]: 17800 µg/mL (≈ 78.7 mM)
COP(=O)(O)c1ccc(C(F)(F)F)cc1	< 10	1.3		> 2.17	< 0.23	> 60				< 10	solubility thermodynamic at 24 h [15]: 27300 µg/mL (≈ 114 mM)
CN1CCCOP1(=O)c1ccc(C(F)(F)F)cc1 (stereo not given)	< 10	2.5	1.9	> 2.17	< 0.23	53 (≈ 0.19 mM)	7500 (≈ 26.9 mM)	64	0.5		degraded at 24 h [16]: > 90%
CN1CCN(C)P1(=O)c1ccc(C(F)(F)F)cc1	< 10		2			> 64	> 30000				degraded at 24 h [16]: > 90%
O=P1(c2ccc(C(F)(F)F)cc2)OCCNCCO1		0.5	1.5	> 2.17	< 0.23	66 (≈ 0.224 mM)	> 10000	63	0.7	< 10	pKb [17]: 6; degraded at 24 h [18]: 20%
O=P(O)(OCCO)c1ccc(C(F)(F)F)cc1	< 10					> 63				< 10	solubility thermodynamic at 24 h [19]: > 28500 µg/mL
CCOP(=O)(OCC)c1ccc(C(=O)Nc2ccc(C)c(Nc3nccc(-c4cccnc4)n3)c2)cc1		1.5	2.8	0.283	0.7	1 (≈ 0.00193 mM)	< 1	18	1.6		fraction unbound [20]: 0.019
CC1(C)COP(=O)(c2ccc(C(F)(F)F)cc2)OC1		3.1	2.6	> 2.17	< 0.23	> 67	2800 (≈ 9.52 mM)	73	0.6	< 10	Drug degradation [2]: > 90%
CP(=O)(O)c1ccc(C(F)(F)F)cc1	< 10	1.3	-1.3	> 2.17	< 0.23	> 49		< 5		< 10	pKa [21]: 2; solubility thermodynamic at 24 h [22]: > 8900 µg/mL
O=P1(c2ccc(C(F)(F)F)cc2)NCCCO1 (stereo not given)		2	1.3	> 2.17	< 0.23	> 60		57	0.7		degraded at 24 h [16]: > 90%; Drug degradation [2]: > 90%
CN1CCCN(C)P1(=O)c1ccc(C(F)(F)F)cc1	< 10	3	2.7	> 2.17	< 0.23	> 68	11100 (≈ 38 mM)	81	0.5		degraded at 24 h [16]: > 90%
Cc1ccc(NC(=O)c2ccc(P(C)(=O)O)cc2)cc1Nc1nccc(-c2cccnc2)n1		0.6	-0.6	> 2.17	< 0.23	> 115	> 10000	< 0.1			fraction unbound [20]: 0.119
Cc1ccc(NC(=O)c2ccc(P(C)(C)=O)cc2)cc1Nc1nccc(-c2cccnc2)n1		0.4	1.5	> 2.17	< 0.23	77 (≈ 0.168 mM)	20 (≈ 0.0437 mM)	0.1	16		fraction unbound [20]: 0.163
Cc1ccc(NC(=O)c2ccc(P(=O)(O)O)cc2)cc1Nc1nccc(-c2cccnc2)n1		0.4	-1	> 2.17	< 0.23	> 115	700 (≈ 1.52 mM)	< 0.3			fraction unbound [20]: 0.021
CC(C)N1CCP(=O)(c2ccc(C(F)(F)F)cc2)CC1	< 10	0.2	2	> 2.17	< 0.23	> 68	23000 (≈ 75.3 mM)	84	0.5	< 10	pKb [17]: 7
CCOP(=O)(O)c1ccc(C(F)(F)F)cc1	< 10	1.9	-0.8	> 2.17	< 0.23	> 64		10	< 0.1	< 10	solubility thermodynamic at 24 h [19]: 280000 µg/mL (≈ 1100 mM)
CCOP(=O)(O)c1ccc(C(=O)Nc2ccc(C)c(Nc3nccc(-c4cccnc4)n3)c2)cc1		1	-0.6	> 2.17	< 0.23	> 122	1100 (≈ 2.25 mM)	< 0.1			fraction unbound [20]: 0.046
CN1CCP(=O)(c2ccc(C(F)(F)F)cc2)CC1	< 10	0	0.9	> 2.17	< 0.23	> 66	> 30000	52	0.7	< 10	pKb [17]: 6.3
O=P1(c2ccc(C(F)(F)F)cc2)NCCCN1	< 10		1.1	> 2.17	< 0.23	> 61	12300 (≈ 46.6 mM)	42	0.7		degraded at 24 h [16]: > 90%
O=C(O)c1ccc(C(F)(F)F)cc1				> 2.17	< 0.23	> 48	> 10000	15	1.3		pKa [21]: 3.5
